Active and inactive are the calls of the source. The rule behind the calls is not given here.
How the values were obtained:
Staphylococcus aureus = assay: Antimicrobial activity against Staphylococcus aureus subsp. aureus ATCC 700698 at 0.14 mg/mL in broth medium incubated for 14 to 16 hrs by Synergy4 plate reader analysis; type: functional, organism-based; conditions: time 14-16 hrs
U-87 MG [1] = assay: Induction of oxidative stress in human U-87 MG cells assessed as reduction in GLuc expression at 3 to 6 uM incubated for 18 hrs; type: functional, cell-based; conditions: U-87MG ATCC, dose 3-6 µM
U-87 MG [2] = assay: Induction of oxidative stress in human U-87 MG cells assessed as reduction in GLuc expression at 3 to 6 uM incubated for 18 hrs in the presence of NAC; type: functional, cell-based; conditions: U-87MG ATCC, dose 3-6 µM
Cryptococcus neoformans = assay: Antimicrobial activity against Cryptococcus neoformans var. grubii ATCC 90112 at 0.14 mg/mL in broth medium incubated for 14 to 16 hrs by Synergy4 plate reader analysis; type: functional, organism-based; conditions: time 14-16 hrs
Pseudomonas aeruginosa = assay: Antimicrobial activity against Pseudomonas aeruginosa ATCC […] at 0.14 mg/mL in broth medium incubated for 14 to 16 hrs by Synergy4 plate reader analysis; type: functional, organism-based; conditions: time 14-16 hrs
Candida albicans = assay: Antimicrobial activity against Candida albicans ATCC MYA-574 at 0.14 mg/mL in broth medium incubated for 14 to 16 hrs by Synergy4 plate reader analysis; type: functional, organism-based; conditions: time 14-16 hrs
Klebsiella pneumoniae = assay: Antimicrobial activity against Klebsiella pneumoniae ATCC BAA-2344 at 0.14 mg/mL in broth medium incubated for 14 to 16 hrs by Synergy4 plate reader analysis; type: functional, organism-based; conditions: time 14-16 hrs
Escherichia coli = assay: Antimicrobial activity against Escherichia coli ATCC BAA-2523 at 0.14 mg/mL in broth medium incubated for 14 to 16 hrs by Synergy4 plate reader analysis; type: functional, organism-based; conditions: time 14-16 hrs
Acinetobacter baumannii = assay: Antimicrobial activity against Acinetobacter baumannii ATCC BAA-1605 at 0.14 mg/mL in broth medium incubated for 14 to 16 hrs by Synergy4 plate reader analysis; type: functional, organism-based; conditions: time 14-16 hrs
Enterococcus faecium = assay: Antimicrobial activity against Enterococcus faecium ATCC BAA-2317 at 0.14 mg/mL in broth medium incubated for 14 to 16 hrs by Synergy4 plate reader analysis; type: functional, organism-based; conditions: time 14-16 hrs
U-87 MG [3] = assay: Induction of oxidative stress in human U-87 MG cells cultured with GLuc assessed as change in cell viability at 3 to 6 uM incubated for 18 hrs by CellTiter-Glo luminescent assay; type: functional, cell-based; conditions: U-87MG ATCC, dose 3-6 µM
SH-SY5Y = assay: Cytotoxicity against human SH-SY5Y cells assessed as reduction in cell viability at 10 uM incubated for 72 hrs by CellTiter-Glo assay; type: functional
HCT-116 = assay: Cytotoxicity against human HCT-116 cells incubated for 72 hrs by CellTiter-Glo assay; type: functional

Row | Compound | Activity (Staphylococcus aureus) | Activity (U-87 MG [1]) | Activity (U-87 MG [2]) | Activity (Cryptococcus neoformans) | Activity (Pseudomonas aeruginosa) | Activity (Candida albicans) | Activity (Klebsiella pneumoniae) | Activity (Escherichia coli) | Activity (Acinetobacter baumannii) | Activity (Enterococcus faecium) | Activity (U-87 MG [3]) | Activity (SH-SY5Y) | CC50 (HCT-116)
1 | CCCCCCCC[C@H]1OC(=O)[C@H](CC(C)C)N(C)C(=O)[C@H](C(C)C)NC(=O)[C@@H](Cc2ccccc2)NC(=O)[C@H]([C@@H](C)CC)OC(=O)[C@H]([C@@H](C)OC)NC(=O)[C@H](C)NC(=O)[C@H](CC(C)C)NC1=O (stereo in doubt; 2) | inactive | Active | inactive | inactive | inactive | inactive | inactive | inactive | inactive | inactive | inactive |  | 
2 | COc1ccc(C[C@H](NC(=O)/C(C)=C/[C@H]2CSC([C@@H](C)[C@@H](O)C[C@H](C)C[C@H](O)C(C)(C)C)=N2)C(=O)N(C)[C@@H](C)C(=O)N(C)[C@@H]2C(=O)N3CCC[C@H]3C(=O)OC(C)[C@@H]2C)cc1 (some centres undefined) |  |  | Active |  |  |  |  |  |  |  |  |  | 
3 | C=C(C)[C@H]1Cc2c(ccc3c2O[C@@H]2COc4cc(OC)c(OC)cc4[C@@H]2C3=O)O1 |  |  | inactive |  |  |  |  |  |  |  |  |  | 
4 | CCCCCCCCCC[C@H]1OC(=O)[C@H](CC(C)C)N(C)C(=O)[C@H](C(C)C)NC(=O)[C@@H](Cc2ccccc2)NC(=O)[C@H]([C@@H](C)CC)OC(=O)[C@H]([C@@H](C)OC)NC(=O)[C@H](C)NC(=O)[C@H](CC(C)C)NC1=O | inactive | inactive | inactive | inactive | inactive | inactive | inactive | inactive | inactive | inactive | inactive | inactive | 3290 nM
5 | CCCCCCCC[C@H]1OC(=O)[C@H](CC(C)C)N(C)C(=O)[C@H](C(C)C)NC(=O)[C@@H](Cc2ccccc2)NC(=O)[C@H]([C@@H](C)CC)OC(=O)[C@H]([C@@H](C)OC)NC(=O)[C@H](C)NC(=O)[C@H](CC(C)C)NC1=O (stereo in doubt; 2a) [listing 1 of 2 here] |  |  | inactive |  |  |  |  |  |  |  |  |  | 
6 | CCCCCCCC[C@H]1OC(=O)[C@H](CC(C)C)N(C)C(=O)[C@H](C(C)C)NC(=O)[C@@H](Cc2ccccc2)NC(=O)[C@H]([C@@H](C)CC)OC(=O)[C@H]([C@@H](C)OC)NC(=O)[C@H](C)NC(=O)[C@H](CC(C)C)NC1=O (stereo in doubt; 2a) [listing 2 of 2 here] |  |  |  |  |  |  |  |  |  |  |  | ~50% | 1750 nM
